Data on 2 substances can be found in patent US20060122180A1, “Therapeutic treatment” (priority 2002, published 2006).

Type in all cases: cell-based, mouse
Common to all, as to conditions: MC-3T3.E1/J1 cells, serum starved, stimulated for 3 minutes

Assay [1] deals with phospho-p44/42 mitogen activated proteine kinase (MAPK) (Thr 202/204). Nature of the assay: Western blot of p44/42 MAPK phosphorylation in growth-factor-stimulated MC3T3.E1/J1 osteoblastic cells. From the text: (§1) The MC3T3. E1/J1 cell line was isolated from a parental cell line, MC3T3-E1 (available from Invitrogen), which had in turn been derived from newborn C57BL/6 mouse calvaria. The MC3T3 E1/J1 line is described as an osteoblastic line. Care is taken in culture not to use a medium with a pH greater than 7.5 or to allow the cells to become confluent, as this causes a de-differentiation to form a fibroblastic phenotype. This reversion to a fibroblastic phenotype is a common feature of osteoblastic cell cultures.
(§2) MC3T3.E1/J1 cells were routinely maintained in complete media (α-modified minimum essential medium eagle+10% foetal calf serum+1% glutamine+10% M1). MC3T3.E1/J1 cells were plated at 1.7×10^4 cells/well (24 well plates) in complete media and incubated at 37° C. in 5% CO2 for 48 hours. Cells were washed twice in phosphate buffered saline and re-incubated for approximately 17 hours in serum starvation media (α-modified minimum essential medium eagle+1% glutamine).
(§3) Cells were then stimulated with growth factor (ET-1 or EGF) for 3 minutes. All media was then removed and the cells lysed in 2× laemli buffer. Following electrophoresis and western blotting, membranes were probed with phospho-p44/42 mitogen activated proteine kinase (MAPK)^(Thr 202/204), phosphor-AKT^(Ser 473) and phospho-EGF Receptor^(tyr 1173) specific antibodies.

The test system of assay [2] is phospho-EGF Receptor (tyr 1173). Briefly: Western blot of EGF receptor phosphorylation in growth-factor-stimulated MC3T3.E1/J1 osteoblastic cells.
Text: as §1, §2, §3

In a further assay the test system is phosphor-AKT (Ser 473). Briefly: Western blot of AKT phosphorylation in growth-factor-stimulated MC3T3.E1/J1 osteoblastic cells.
Text: as §1, §2, §3

Bridge positions count the residues as written; N and C are the ends. Ends that are not written are not given here.

With “epidermal growth factor [EGF, growth factor used as stimulus]”, the “p44/42 MAPK phosphorylation” value in assay [1] is reported as “stimulates”. For the same substance, the “EGFR tyr1173 phosphorylation” value in assay [2] is reported as “stimulates”. For the same substance, in the assay on phosphor-AKT (Ser 473), the AKT phosphorylation result is listed as “stimulates”.

As for “endothelin-1 (CSCSSLMDKECVYFCHLDIIW; disulfide 1-15, 3-11; ends not checked; UniProt P05305 53-73, looked up) [ET-1, endogenous 21 amino acid peptide, endothelin isoform, used as growth factor stimulus]”, the “p44/42 MAPK phosphorylation” value in assay [1] is reported as “stimulates”.
